# Measured values: the supplement of paper PMC7017272
# ± gives the standard deviation of the averaged measurements.
# Assays:
# Settings in all cases: treatment time: 3 days
# UT-SCC-24A [1] = experiment: maximal % inhibition of viability relative to DMSO; higher = stronger effect
# Experimental: (§1)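 HNSCC cell lines (500 cells/well, 384-well) were cultured on plastic, on top of (2D) or embedded (3D) in Matrigel or human leiomyoma matrix Myogel (500 ug/mL; Myogel 3D mixed with rat collagen I). Cells were treated for 3 days with 5 ten-fold concentrations of each drug, and viability was read by CellTiter-Glo. Viability was normalised to DMSO (0% inhibition) and 100 uM benzethonium chloride (100% inhibition) controls and fitted with the FIMM DSRT pipeline to give IC50 (nM), maximal % inhibition and the drug sensitivity score (DSS). Suffixes _1/_2/_3 on drug names are replicates.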
# UT-SCC-24A [2] = experiment: drug sensitivity score (DSS); higher = more sensitive
# Experimental: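 HNSCC cell lines (500 cells/well, 384-well) were cultured on plastic, on top of (2D) or embedded (3D) in Matrigel or human leiomyoma matrix Myogel (500 ug/mL; Myogel 3D mixed with rat collagen I). Cells were treated for 3 days with 5 ten-fold concentrations of each drug, and viability was read by CellTiter-Glo. Suffixes _1/_2/_3 on drug names are replicates.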
# UT-SCC-8 = experiment: drug sensitivity score (DSS); higher = more sensitive; extreme values may be limits of the assay
# Summary of the method: (§2)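 Viability of HPV-negative HNSCC cell lines was measured by CellTiter-Glo 2.0 luminescence. Cells were seeded at 500 cells/well in 384-well plates on plastic, on Matrigel- or Myogel-coated wells (500 µg/mL), or embedded in Matrigel or Myogel plus rat collagen I, then given compounds at five 10-fold concentrations for 3 days, with signals normalised to vehicle (0.1% DMSO) and cell-killing control wells. Fitting of percent-inhibition dose–response curves in the FIMM pipeline yielded IC50, maximal inhibition and drug sensitivity score.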
# UT-SCC-73 = experiment: as above
# Summary of the method: as §2
# UT-SCC-40 = experiment: as above
# Summary of the method: as §2
# UT-SCC-14 [3] = experiment: as above
# Summary of the method: as §2
# UT-SCC-42B [4] = experiment: as above
# Summary of the method: as §2
# UT-SCC-24B = experiment: as above
# Summary of the method: as §2
# UT-SCC-28 = experiment: as above
# Summary of the method: as §2
# UT-SCC-42A = experiment: as above
# Summary of the method: as §2
# UT-SCC-106A = experiment: as above
# Summary of the method: as §2
# UT-SCC-44 = experiment: as above
# Summary of the method: as §2
# UT-SCC-81 [5] = experiment: as above
# Summary of the method: as §2
# UT-SCC-14 [6] = experiment: maximal % inhibition of viability relative to DMSO; higher = stronger effect
# Experimental: as §1, with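 “DMSO” for “DMSO (0% inhibition)”, “and” for “and 100 uM”, “chloride” for “chloride (100% inhibition)”, “DSS.” for “the drug sensitivity score (DSS).”, “_1/_2/_3” for “_1/_2/_3 on drug names”, “replicates. Only inhibition-mode (IC50) fits are kept.” for “replicates.”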
# UT-SCC-42B [7] = experiment: as above
# Experimental: as §1, with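 “DMSO” for “DMSO (0% inhibition)”, “and” for “and 100 uM”, “chloride” for “chloride (100% inhibition)”, “DSS.” for “the drug sensitivity score (DSS).”, “_1/_2/_3” for “_1/_2/_3 on drug names”, “replicates. Only inhibition-mode (IC50) fits are kept.” for “replicates.”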
# UT-SCC-81 [8] = experiment: as above
# Experimental: as §1, with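 “DMSO” for “DMSO (0% inhibition)”, “and” for “and 100 uM”, “chloride” for “chloride (100% inhibition)”, “DSS.” for “the drug sensitivity score (DSS).”, “_1/_2/_3” for “_1/_2/_3 on drug names”, “replicates. Only inhibition-mode (IC50) fits are kept.” for “replicates.”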
# UT-SCC-24A [9] = experiment: relative IC50 (midpoint of the fitted curve; maximal inhibition may be below 50%); higher = less potent
# Experimental: as §1
# [10] = culture condition: embedded in Matrigel
# [11] = culture condition: embedded in Myogel + collagen I
# [12] = culture condition: on top of Matrigel
# [13] = culture condition: on top of Myogel
# [14] = culture condition: plastic 2D (no matrix)
structure (smiles),measurement,setting,value
Cn1c(=O)c(F)c(Nc2ccc(I)cc2F)c2c(=O)n(C[C@@H](O)CO)cnc21 [TAK-733],maximal % inhibition of viability,UT-SCC-24A [1]; [10],81.5 ± 1.9%
same,maximal % inhibition of viability,UT-SCC-24A [1]; [11],53.9 ± 2.1%
same,maximal % inhibition of viability,UT-SCC-24A [1]; [12],77.7 ± 1.1%
same,maximal % inhibition of viability,UT-SCC-24A [1]; [13],45.9 ± 4%
same,maximal % inhibition of viability,UT-SCC-24A [1]; [14],70.6 ± 1.3%
same,drug sensitivity score,UT-SCC-24A [2]; [10],32.5 ± 1.7 DSS
same,drug sensitivity score,UT-SCC-24A [2]; [11],17 ± 1.9 DSS
same,drug sensitivity score,UT-SCC-24A [2]; [12],27 ± 0.5 DSS
same,drug sensitivity score,UT-SCC-24A [2]; [13],9.37 ± 1.8 DSS
same,drug sensitivity score,UT-SCC-24A [2]; [14],24.6 ± 0.76 DSS
same,drug sensitivity score,UT-SCC-8; [10],13.6 ± 2.6 DSS
same,drug sensitivity score,UT-SCC-8; [11],2.3 ± 2.6 DSS
same,drug sensitivity score,UT-SCC-8; [12],8.03 ± 4.5 DSS
same,drug sensitivity score,UT-SCC-8; [13],7.53 ± 4.9 DSS
same,drug sensitivity score,UT-SCC-8; [14],7.07 ± 2.1 DSS
same,drug sensitivity score,UT-SCC-73; [10],24.7 ± 0.5 DSS
same,drug sensitivity score,UT-SCC-73; [11],13.8 ± 6 DSS
same,drug sensitivity score,UT-SCC-73; [12],21.4 ± 1.6 DSS
same,drug sensitivity score,UT-SCC-73; [13],12.9 ± 0.38 DSS
same,drug sensitivity score,UT-SCC-73; [14],17.5 ± 1.3 DSS
same,drug sensitivity score,UT-SCC-40; [10],24 ± 0.56 DSS
same,drug sensitivity score,UT-SCC-40; [11],16.2 ± 2.5 DSS
same,drug sensitivity score,UT-SCC-40; [12],20.2 ± 1.5 DSS
same,drug sensitivity score,UT-SCC-40; [13],10 ± 0.56 DSS
same,drug sensitivity score,UT-SCC-40; [14],11.6 ± 1.3 DSS
same,drug sensitivity score,UT-SCC-14 [3]; [10],11.2 ± 3.2 DSS
same,drug sensitivity score,UT-SCC-14 [3]; [11],7.5 ± 1.5 DSS
same,drug sensitivity score,UT-SCC-14 [3]; [12],7.13 ± 0.64 DSS
same,drug sensitivity score,UT-SCC-14 [3]; [13],5 ± 0.98 DSS
same,drug sensitivity score,UT-SCC-14 [3]; [14],2.67 ± 3 DSS
same,drug sensitivity score,UT-SCC-42B [4]; [10],24.1 ± 2.8 DSS
same,drug sensitivity score,UT-SCC-42B [4]; [12],12.4 ± 1.9 DSS
same,drug sensitivity score,UT-SCC-42B [4]; [13],2.6 ± 0.1 DSS
same,drug sensitivity score,UT-SCC-42B [4]; [14],6.27 ± 1.4 DSS
same,drug sensitivity score,UT-SCC-24B; [10],9.43 ± 5.1 DSS
same,drug sensitivity score,UT-SCC-24B; [11],8.77 ± 1.4 DSS
same,drug sensitivity score,UT-SCC-24B; [12],10 ± 1.8 DSS
same,drug sensitivity score,UT-SCC-24B; [13],5.97 ± 2.3 DSS
same,drug sensitivity score,UT-SCC-24B; [14],13 ± 6 DSS
same,drug sensitivity score,UT-SCC-28; [10],9.3 ± 2.7 DSS
same,drug sensitivity score,UT-SCC-28; [11],0.8 ± 1.4 DSS
same,drug sensitivity score,UT-SCC-28; [12],10.8 ± 2.5 DSS
same,drug sensitivity score,UT-SCC-28; [14],5 ± 1.4 DSS
same,drug sensitivity score,UT-SCC-42A; [10],16.7 ± 2 DSS
same,drug sensitivity score,UT-SCC-42A; [11],8.73 ± 7.5 DSS
same,drug sensitivity score,UT-SCC-42A; [12],16 ± 1.3 DSS
same,drug sensitivity score,UT-SCC-42A; [13],9.63 ± 2.4 DSS
same,drug sensitivity score,UT-SCC-42A; [14],11.4 ± 1.6 DSS
same,drug sensitivity score,UT-SCC-106A; [10],16.8 ± 1.1 DSS
same,drug sensitivity score,UT-SCC-106A; [11],1.2 ± 0.56 DSS
same,drug sensitivity score,UT-SCC-106A; [12],18.7 ± 0.38 DSS
same,drug sensitivity score,UT-SCC-106A; [13],1.07 ± 1.1 DSS
same,drug sensitivity score,UT-SCC-106A; [14],19 ± 1.2 DSS
same,drug sensitivity score,UT-SCC-44; [10],21.6 ± 1.5 DSS
same,drug sensitivity score,UT-SCC-44; [11],3.67 ± 1.4 DSS
same,drug sensitivity score,UT-SCC-44; [12],14.8 ± 1.2 DSS
same,drug sensitivity score,UT-SCC-44; [13],5.27 ± 2.8 DSS
same,drug sensitivity score,UT-SCC-44; [14],12.9 ± 0.4 DSS
same,drug sensitivity score,UT-SCC-81 [5]; [10],28.8 ± 3.6 DSS
same,drug sensitivity score,UT-SCC-81 [5]; [11],3.93 ± 2.7 DSS
same,drug sensitivity score,UT-SCC-81 [5]; [12],19.6 ± 1.2 DSS
same,drug sensitivity score,UT-SCC-81 [5]; [13],2.63 ± 2.3 DSS
same,drug sensitivity score,UT-SCC-81 [5]; [14],2.9 ± 0.17 DSS
same,maximal % inhibition of viability,UT-SCC-14 [6]; [10],42.3 ± 17%
same,maximal % inhibition of viability,UT-SCC-14 [6]; [11],31.8 ± 2.2%
same,maximal % inhibition of viability,UT-SCC-14 [6]; [12],33.3 ± 3.4%
same,maximal % inhibition of viability,UT-SCC-14 [6]; [13],28.6 ± 2.2%
same,maximal % inhibition of viability,UT-SCC-14 [6]; [14],20.4 ± 13%
same,maximal % inhibition of viability,UT-SCC-42B [7]; [10],71.3 ± 7.9%
same,maximal % inhibition of viability,UT-SCC-42B [7]; [12],54 ± 1.3%
same,maximal % inhibition of viability,UT-SCC-42B [7]; [13],30.2 ± 3.9%
same,maximal % inhibition of viability,UT-SCC-42B [7]; [14],38.4 ± 5.8%
same,maximal % inhibition of viability,UT-SCC-81 [8]; [10],87.1 ± 4%
same,maximal % inhibition of viability,UT-SCC-81 [8]; [11],25 ± 12%
same,maximal % inhibition of viability,UT-SCC-81 [8]; [12],71.5 ± 6%
same,maximal % inhibition of viability,UT-SCC-81 [8]; [13],24.3 ± 5.5%
same,maximal % inhibition of viability,UT-SCC-81 [8]; [14],36.4 ± 2.3%
same,relative IC50,UT-SCC-24A [9]; [12],1.23 nM
same,relative IC50,UT-SCC-24A [9]; [14],1.21 nM
